# Results reported in patent US11179322B2, “Methods and compositions for treating tumors with TTFields and sorafenib” (Novocure GmbH, priority 2018, dated 2021).
# How the values were obtained:
# [1] = system: Huh-7D12 cells; experiment: Clonogenic survival; type: cell-based, human
# Experimental: (§1) Sorafenib was obtained from BioVision, USA.
# (§2) At the end of treatment, cells were removed with trypsin, counted, plated in 6-well plates (300 cells/plate) and incubated for 2-3 weeks in CO2 incubator at 37° C. When colonies reached 40-100 cells/colony, they were fixed with 100% methanol, stained with 0.5% crystal violet (Sigma), photographed, and the number of clones was quantified using ImageJ program.
# [2] = system: HepG2 cells; experiment: Clonogenic survival; type: cell-based, human
# Experimental: as §1, §2
# [3] = system: Huh-7D12 cells; experiment: Cytotoxicity assay and overall effect (cell counts by flow cytometry); type: cell-based, human
# Experimental: (§3) All combination experiments were performed at a frequency of 150 kHz. In these examples, the electric field intensity was 1.0 V/cm for HepG2 and 1.7 V/cm for Huh-7D12 cells. Both cell lines were grown at various sorafenib concentrations (0.1-3.0 μM), and were treated with TTFields for 72 hours. […] The number of cells was determined at the end of treatment and is expressed as a percentage of control cells.
# as §1
# (§4) TTFields (1.0-1.7 V/cm RMS, 150 kHz) were applied for 72 hours to cell lines using the Inovitro™ system. At the end of treatment, inhibition of tumor cell growth was analysed quantitatively based on cell counts performed on EC800 flow cytometer (Sony Biotechnology, Japan).
# [4] = system: HepG2 cells; experiment: as above; type: cell-based, human
# Experimental: as §3, §1, §4
# [5] = system: N1S1 Hepatocellular Carcinoma; experiment: N1S1 orthotopic HCC rat model, tumor volume by MRI; type: in vivo; conditions: Sprague Dawley rats, N1S1 liver tumor, sorafenib 10 mg/kg/day IP + TTFields 150 kHz 2.86 V/cm
# Experimental: In this experiment, the volume of the tumor was measured using MRI on day 6 (one day before treatment start) and day 14 (one day after the end of treatment); and each data point in FIG. 7 represents the volume of the tumor on day 14 divided by the volume of the tumor on day 6. Thus, numbers greater than 1 represent growth in the tumor volume, and numbers smaller than 1 represent a tumor that has shrunk between day 6 and day 14.
# In the first part, the efficacy of different Sorafenib concentrations in combination with TTFields was tested, and one concentration was used during future experiments (10 mg/kg/day over 5 days). In the following experiments, the combined treatment of a single Sorafenib concentration and TTFields (150 kHz) was tested.
# All animals were injected orthotopically to the left lobe of the liver with N1S1 Hepatocellular Carcinoma model (Garin E. et al., 2005) by day 0 as described in SOP-BI-036. The peritoneum was closed using sutures and the wound was closed using clips. On day 6, all animals underwent first MRI (as described in SOP-BI-029) and were randomly divided into groups. […]
# Tumor volume was determined based on MRI scans on days 7, 14 and day 21 after injection. […] Tumor volume was measured by manual segmentation of the tumor using ITK-SNAP version 3.6.0-rc1 free software.
# [6] = system: Huh-7D12 cells; experiment: Apoptosis induction (FITC Annexin V / 7-AAD flow cytometry)
# Experimental: (§5) The exemplary effects of the combined treatment of TTFields and sorafenib was tested using the following human HCC cell lines: HepG2 (ATCC) and Huh-7D12 (Sigma). All cells were grown in a humidified incubator supplied with 5% CO2. HepG2 were maintained in EMEM, supplemented with 10% FBS, 2 mmol/L glutamine, Pen-Strep solution (100 units/ml Penicillin and 0.1 mg/ml Streptomycin), 1 mmol/L sodium pyruvate and 1% NEAA. […] Sorafenib was obtained from BioVision, USA.
# (§6) For apoptosis analysis, cells were removed with Trypsin immediately after 72 h treatment, washed twice with ice-cold PBS with 1% FBS, and stained using FITC Annexin V Apoptosis Detection Kit and 7-AAD (BioLegend, USA). Early, late, and total apoptosis was then quantified using the EC800 flow cytometer (Sony Biotechnology, Japan).
# [7] = system: HepG2 cells; experiment: as above
# Experimental: as §5, §6
smiles,measurement,setting,value
"CNC(=O)c1cc(Oc2ccc(NC(=O)Nc3ccc(Cl)c(C(F)(F)F)c3)cc2)ccn1 [sorafenib, 4-[4-[[4-chloro-3-(trifluoromethyl)phenyl]carbamoylamino]phenoxy]-N-methylpyridine-2-carboxamide]","clonogenic potential, sorafenib monotherapy","[1]; Huh-7D12, escalating dose of sorafenib alone",reduction in the clonogenic potential
same,"clonogenic survival, combined treatment of TTFields and sorafenib","[1]; Huh-7D12, sorafenib + TTFields 150 kHz 1.7 V/cm, 72 hours",additional reduction in the clonogenic survival
same,"clonogenic potential, sorafenib monotherapy","[2]; HepG2, escalating dose of sorafenib alone",reduction in the clonogenic potential
same,"clonogenic survival, combined treatment of TTFields and sorafenib","[2]; HepG2, sorafenib + TTFields 150 kHz 1.0 V/cm, 72 hours",additional reduction in the clonogenic survival
same,IC50,"[3]; Homo sapiens, Huh-7D12, sorafenib alone, 72 hours, read-out: IC50 (number of cells, percentage of control)",~1000 nM
same,cytotoxicity of combined treatment of TTFields and sorafenib,"[3]; Huh-7D12, sorafenib 0.1-3.0 μM + TTFields 150 kHz 1.7 V/cm, 72 hours, 2-way ANOVA p<0.001",enhanced cytotoxicity
same,"overall effect, sorafenib in combination with TTFields vs sorafenib alone","[3]; Huh-7D12, sorafenib 0.1-3.0 μM, TTFields 1.7 V/cm",improvement provided by TTFields can be seen even at low levels of sorafenib
same,cytotoxicity of combined treatment of TTFields and sorafenib,"[4]; HepG2, sorafenib 0.1-3.0 μM + TTFields 150 kHz 1.0 V/cm, 72 hours, 2-way ANOVA p<0.001",enhanced cytotoxicity
same,"overall effect, sorafenib in combination with TTFields vs sorafenib alone","[4]; HepG2, sorafenib 0.1-3.0 μM, TTFields 1.0 V/cm",improvement provided by TTFields can be seen even at low levels of sorafenib
same,IC50,"[4]; Homo sapiens, HepG2, sorafenib alone, 72 hours, read-out: IC50 (number of cells, percentage of control)",~1000 nM
same,"tumor volume (day 14 divided by day 6, MRI), combination of TTFields and sorafenib",[5],synergistic decrease in tumor volume
same,"apoptotic events, sorafenib alone","[6]; Huh-7D12, 72 hours, sorafenib from no drug to 3 μM",increased apoptotic events
same,"additional increase in apoptosis, sorafenib with TTFields","[6]; Huh-7D12, sorafenib + TTFields 150 kHz 1.7 V/cm, 72 hours, range stated for both cell lines",10-45%
same,"apoptotic events, sorafenib alone","[7]; HepG2, 72 hours, sorafenib from no drug to 3 μM",increased apoptotic events
same,"additional increase in apoptosis, sorafenib with TTFields","[7]; HepG2, sorafenib + TTFields 150 kHz 1.0 V/cm, 72 hours, range stated for both cell lines",10-45%
